Laboratory results from patent US20020034725A1, “SENSITIZATION OF CELLS TO RADIATION AND AND CHEMOTHERAPY” (priority 1996, published 2002).

Legend:
K-ras = assay: Western blot of K-ras prenylation in SW480 and Panc-1 cells; type: cell-based, human; conditions: SW480 cells, 48 hours
Procedure: FIG. 17A is an image of a Western blot depicting inhibition by FTI-277 of K-ras prenylation in human SW480 colon carcinoma cells. SW480 cells were treated with the indicated concentrations of FTI-277 (μM) for 48 hours. Samples were harvested and cell lysates were analyzed by Western blotting using either a H-ras monoclonal antibody (top) or a K-ras monoclonal antibody (bottom). Arrows indicate unfarnesylated ras bands.
FIG. 18A is an image of a Western blot depicting the specific inhibition of K-ras prenylation by combined FTI-277 and GGTI-298 treatment. Log phase cultures of human pancreatic carcinoma cells (Panc-1) and colon carcinoma cells (SW480) were treated with 5 μM FTI and 8 μM GGTI 298 for 48 hours. Cell samples were then harvested and cell lysates were prepared for Western blot analysis using monoclonal antibodies to K-ras and nuclear lamin B. The electrophoretic mobility of the K-ras mutant in SW480 is slower than that of the mutant K-ras in Panc-1 cells.

wild type c-H-ras = assay: Western blot of ras farnesylation in untransformed REF and MR4 cells; type: cell-based, rat
From the text: (§1) The oncogene-transfected cells used in this study were all derived from early passage rat embryo fibroblast (REF) by transfection with the pEJ plasmid containing the H-ras gene isolated from the EJ bladder carcinoma. This vector was introduced by calcium phosphate DNA transfer into primary REF, either alone or together with the pMC29 vector containing v-myc. One clone containing both the introduced H-ras gene and the v-myc genes is 3.7 (McKenna et al., 1990, Cancer Res. 50:97-102). 4R and 5R cells were obtained as rare transformants after transfection with the pEJ plasmid alone (McKenna et al., 1993, supra). MR4 cells were immortalized by transfection with an expression vector comprising v-myc linked to a neomycin-resistant selectable marker (McKenna et al., 1991, Radiat. Res. 125:283-287). REF-GG cells were obtained by transforming REF cells with a chimeric H-ras(v12) in which the CAAX motif is CVLL. All cell lines were mycoplasma free.
Cells were lysed in culture dishes with 1 x reducing Laemmli sample buffer. Samples were boiled, sheared and clarified by centrifugation at 14,000 rpm in a microfuge before storage at −20° C. Samples containing equal amounts of protein were separated on a 12% SDS polyacrylamide gel and electrophoretically transferred to nitrocellulose membranes. Membranes were blocked for 1-2 hours in PBS containing 0.1% Tween-20 and 5% powdered milk before antibody addition. Membranes were probed with monoclonal pan-ras antibody AB-4 (Oncogene Science, Uniondale, N.Y.) at a concentration of 0.5 μg/ml, or with monoclonal H-ras antibody LA069 (1:5000 dilution; Quality Biotech, Camden, N.J.). Detection of protein was accomplished using the ECL chemiluminescence kit (Amersham, Arlington Heights, Ill.). Images were digitized using an Arcus II scanner, and figures were assembled using Adobe Photoshop 3.0.

3.7 and 5R cells = assay: Cell growth after FTI-277 treatment; type: cell-based, rat
Procedure: FIG. 15A is a graph depicting growth of primary REF cells (circles) and 3.7 cells (squares) after FTI-277 treatment. Two×10^5 cells were plated in medium containing 2.5 μM (3.7 cells) or 5 μM (REF cells) of FTI-277. […] Cells were harvested from replicate dishes at one day intervals and counted using a hemocytometer to determine the total cell number in each culture. Open symbols: DMSO (drug carrier) treated cells; closed symbols: FTI-277 treated cells.
FIG. 15B is a graph depicting growth of MR4 cells (circles) and 5R cells (squares) following treatment with FTI-277 treatment. Three×10^5 cells were plated in medium containing 5 μM FTI-277. Cells were harvested from replicate dishes at one day intervals and counted using a hemocytometer to determine the total cell number in each culture. Open symbols: DMSO (drug carrier) treated cells; closed symbols: 5 μM FTI-277 treated cells.

H-ras = H-ras prenylation in human colon carcinomas grown in nude mice; type: in vivo, mouse; conditions: SW480 and LoVo tumors in nude mice, two intraperitoneal injections of 50 mg/kg
Procedure: Expression of H-ras was detected by Western blot analysis using anti-H-ras monoclonal antibody of lysates of the human colon adenocarcinomas, SW480 and LoVo, grown in nude mice. Lysates were obtained from tumors excised from a vehicle (DMSO) treated mouse (Lane 1) and mice treated twice with intraperitoneal injections of 50 mg/kg of FTI-277 18 hours after treatment was initiated (Lanes 2 and 3). Lane 1 and 2: SW480, Lane 3: LoVo. The arrow denotes the migration of unfarnesylated H-ras.
To examine the effectiveness of prenylation inhibitors in vivo in an animals, both rodent and human tumor responses to these inhibitors were examined in tumor grafts growing on nude mice. The protocols described in Hoffinan (1992, Curr, Perspect. on Molec. & Cell. Oncol. 1:311-326) were followed to establish and grow tumors in nude mice.
To perform the assay, tumors were implanted and allowed to grow to approximately 125 mm^3. Mice having these tumors were then administered 50 mg/kg FTI-277 by intraperitoneal injection. Controls included mice which were injected with an equal volume of drug-free carrier solution. Two injections were given to each mouse, one at 18 hours and a second at 5 hours prior to sacrificing each mouse. The tumor ras prenylation status of the mice was subsequently assessed as described herein.

[1] = test system: REF, 3.7, 4R, 5R and REF-GG cells; assay: Apoptosis determination after 10 Gray irradiation (propidium iodide); type: cell-based, rat
Procedure: 3×10^3 cells/well in 24-well plates were allowed to attach for 12 hours and were then treated with medium containing FTI-277 in DMSO or an equivalent volume of DMSO without inhibitor. Twenty four hours after irradiation with 10 Gray using the irradiator described above, both adherent and non-adherent cells were harvested. Cells were stained with propidium iodide (Muschel et al., 1995, Cancer Res. 55:995-998). A minimum of three independent fields of 100 cells were counted for each sample. Scoring of samples was performed in a double blind manner.

[2] = test system: murine prostate tumor cells cultured from a metastic lung nodule; assay: Surviving fraction at 2 Gray, murine prostate tumor cells; type: cell-based, mouse; conditions: 5 μM FTI-277
Procedure: FIG. 14C is a series of graphs depicting the effect of 5 μM FTI-277 and 2 Gray irradiation on murine prostate tumor cells cultured from a metastic lung nodule. Cells were referred at 24 hours following irradiation in order to dilute the concentration of the inhibitor to 0.5 μM. The surviving cell fraction was assessed as described in FIG. 14B. The correlation coefficient for linear regression analysis (r^2) was greater than 0.95 in all cases.

H-ras^v12 CVLL = assay: Western blot of prenylation of chimeric H-ras in REF-GG cells; type: cell-based, rat; conditions: up to 10 μM
From the text: as §1
Cells were lysed in culture dishes with 1 x reducing Laemmli sample buffer. Samples were boiled, sheared and clarified by centrifugation at 14,000 rpm in a microfuge before storage at −20° C. Samples containing equal amounts of protein were separated on a 12% SDS polyacrylamide gel and electrophoretically transferred to nitrocellulose membranes. […]

SMILES: COC(=O)[C@H](CCSC)NC(=O)c1ccc(NC[C@@H](N)CS)cc1-c1ccccc1 [FTI-277]
- concentration at which altered migration of K-ras became evident (K-ras): 30 µM
- migration of ras (wild type c-H-ras; MR4 cells, up to 10 μm, pan-ras antibody): no changes in the migration of ras
- H-ras farnesylation status (wild type c-H-ras; untransformed REF, doses of up to 30 μM): majority of the H-ras remained in the farnesylated form
- cell growth (3.7 and 5R cells; 3.7 cells, conditions of radiation survival experiments): some inhibition of cell growth
- increase in cell number (3.7 and 5R cells; 3.7 cells, day 4 after drug treatment): fifty-fold increase in cell number
- cell growth (3.7 and 5R cells; 5R cells, 5 μM): more resistant to growth inhibition
- H-ras migration in tumors (H-ras): altered H-ras migration
- inhibitor concentration of maximum effect on apoptosis ([1]; 3.7 cells, 10 Gray): 5 µM
- apoptosis after irradiation ([1]; 3.7 cells, 10 Gray, 2.5 μM): significant increase
- extent of apoptosis induced by irradiation ([1]; 3.7 cells, 10 Gray, 24 hours): greatly enhanced
- irradiation-induced apoptosis ([1]; 4R and 5R cells, 10 Gray): augment irradiation-induced apoptosis
- toxicity of the inhibitor ([1]; 48 hours, highest doses, 3.7 cells only): some toxicity
- extent of apoptosis after irradiation ([1]; REF-GG cells): no significant effect
- baseline level of apoptosis ([1]; REF-GG cells, unirradiated): slightly increased
- apoptosis after irradiation ([1]; untransformed REF cells, 10 Gray): did not result in an increase in apoptosis
- survival after 2 Gray irradiation [2]: 0.36
- mobility of H-ras-CVLL (H-ras^v12 CVLL): no change in the mobility of H-ras-CVLL
